Values of other authors, collected in patent US20080081052A1, “Topical compositions containing solubilized allantoin and related methods” (priority 2006, published 2008).

Conditions: expressed in g/100 g water @ 25 degree C; no solubilization enhancer

With `NC(=O)NC1NC(=O)NC1=O` (stereo not shown) [allantoin, (2,5-dioxo-4-imidazolidinyl) urea] as the compound, how does the “solubility of allantoin in water” value read?
Its value is 0.45%.
